What was measured:
[1] = test system: rice; assay: Test C flooded paddy test; assay type: in vivo, Oryza sativa; conditions: for Plant response rating, Rice: visual rating after 12 to 14 days
Summary of the method: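 Postemergence sprays applied to plants 2 to 18 cm tall (1- to 4-leaf stage); paddy species grown to 2-leaf stage under flooding. After 12 to 14 days in greenhouse, visual rating versus untreated controls on 0–100 scale (0 no effect, 100 complete control).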

[2] = test system: morningglory; assay: Test A pre-/postemergence herbicide test; assay type: in vivo, Ipomoea spp.
Summary of the method: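 Plants are held in greenhouse about ten days after treatment, then compared with untreated controls and scored 0 (no effect) to 100 (complete control). Preemergence dosing is a directed soil spray on sown sandy loam; postemergence dosing is spray to runoff at 2–10 cm height.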

[3] = test system: smallflower umbrella sedge; assay: Test C flooded paddy test; assay type: in vivo, Cyperus difformis; conditions: for Plant response rating, Sedge, Umbrella: visual rating after 12 to 14 days
[4] = test system: rice; assay: Test B pre-/postemergence herbicide test; assay type: in vivo, Oryza sativa; conditions: for Plant response rating, Rice: preemergence
Summary of the method: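 Plants compared with untreated controls 13–15 days post-treatment and given a visual 0–100 injury score. Applications: preemergence to seeds; postemergence at 1- to 4-leaf (2–18 cm); paddy species flooded, 2-leaf stage. Vehicle non-phytotoxic, surfactant included.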

[5] = test system: soybean; assay: Test C pre-/postemergence herbicide test; assay type: in vivo, Glycine max
From the text: (§1) Seeds of plant species selected from bermudagrass (Cynodon dactylon (L.) Pers.), Surinam grass (Urochloa decumbens (Staph) R. D. Webster, previously named Brachiaria decumbens Stapf), cocklebur (Xanthium strumarium L.), corn (Zea mays L.), large crabgrass (Digitaria sanguinalis (L.) Scop.), woolly cupgrass (Eriochloa villosa (Thunb.) Kunth), giant foxtail (Setaria faberi Herrm.), goosegrass (Eleusine indica (L.) Gaertn.), johnsongrass (Sorghum halepense (L.) Pers.), kochia (Kochia scoparia (L.) Schrad.), lambsquarters (Chenopodium album L.), morningglory (Ipomoea coccinea L.), eastern black nightshade (Solanum ptycanthum Dunal), yellow nutsedge (Cyperus esculentus L.), pigweed (Amaranthus retroflexus L.), common ragweed (Ambrosia elatior L.), soybean (Glycine max (L.) Merr.), common (oilseed) sunflower (Helianthus annuus L.) and velvetleaf (Abutilon theophrasti Medik.) were planted and treated preemergence with test chemicals formulated in a non-phytotoxic solvent mixture which included a surfactant.
(§2) At the same time, plants selected from these crop and weed species and also winter barley (Hordeum vulgare L.), blackgrass (Alopecurus myosuroides Huds.), canarygrass (Phalaris minor Retz.), chickweed (Stellaria media (L.) Vill.), downy bromegrass (Bromus tectorum L.), green foxtail (Setaria viridis (L.) Beauv.), Italian ryegrass (Lolium multiflorum Lam.), wheat (Triticum aestivum L.), wild oat (Avenafatua L.) and windgrass (Apera spica-venti (L.) Beauv.) were treated with postemergence applications of some of the test chemicals formulated in the same manner. Plants ranged in height from 2 to 18 cm (1- to 4-leaf stage) for postemergence treatments. Plant species in the flooded paddy test consisted of rice (Oryza sativa), smallflower umbrella sedge (Cyperus difformis L.), ducksalad (Heteranthera limosa (Sw.) Willd.) and barnyardgrass (Echinochloa crus-galli (L.) Beauv.) grown to the 2-leaf stage for testing. Treated plants and controls were maintained in a greenhouse for 12 to 14 days, after which time all species were compared to controls and visually evaluated. Plant response ratings, summarized in Table C, are based on a scale of 0 to 100 where 0 is no effect and 100 is complete control. A dash (-) response means no test result.

[6] = test system: goosegrass; assay: Test C pre-/postemergence herbicide test; assay type: in vivo, Eleusine indica
From the text: as §1, §2

[7] = test system: yellow nutsedge; assay: Test C pre-/postemergence herbicide test; assay type: in vivo, Cyperus esculentus
From the text: as §1, §2

[8] = 62 g ai/ha, scale 0 to 100 (0 no effect, 100 complete control)
[9] = 125 g ai/ha, scale of 0 to 100, 0 is no effect, 100 is complete control
[10] = 250 g ai/ha, scale 0 to 100 (0 no effect, 100 complete control)
[11] = 500 g ai/ha, scale 0 to 100 (0 no effect, 100 complete control)
[12] = Postemergence, 500 g ai/ha, 0 to 100 scale, 0 no effect, 100 complete control
[13] = Postemergence, 2000 g ai/ha, 0 to 100 scale, 0 no effect, 100 complete control
[14] = Preemergence, 500 g ai/ha, visual rating, 0 to 100 scale (0 no effect, 100 complete control)
[15] = 250 g ai/ha, scale of 0 to 100, 0 is no effect, 100 is complete control
[16] = 125 g ai/ha, 0 to 100 scale, 0 is no effect, 100 is complete control
[17] = Preemergence, 2000 g ai/ha, visual rating, 0 to 100 scale (0 no effect, 100 complete control)
[18] = 125 g ai/ha, scale 0 to 100 (0 no effect, 100 complete control)
[19] = 500 g ai/ha, visual rating 0-100, 0 no effect, 100 complete control
[20] = Postemergence, 250 g ai/ha, scale 0 to 100, 0 no effect, 100 complete control
[21] = Postemergence, 500 g ai/ha, scale 0 to 100, 0 no effect, 100 complete control
[22] = postemergence, 125 g ai/ha, scale 0 to 100
[23] = postemergence, 62 g ai/ha, scale 0 to 100
[24] = preemergence, 500 g ai/ha, visual injury, 0 to 100 scale (0 no effect, 100 complete control)
[25] = 62 g ai/ha, preemergence, scale 0 to 100
[26] = 250 g ai/ha, scale 0-100, preemergence
[27] = 500 g ai/ha, scale 0 to 100 (0 no effect, 100 complete control), visual, 12 to 14 days, preemergence

| SMILES | Rice plant response rating [1, 8] | Rice plant response rating [1, 9] | Plant response rating, Rice [1, 11] | Plant response rating, Morningglory [2, 13] | Morningglory plant response rating [2, 14] | Sedge, Umbrella plant response rating [3, 8] | Sedge, Umbrella plant response rating [3, 9] | Plant response rating, Sedge, Umbrella [3, 11] | Rice plant response rating [1, 15] | Plant response rating, Rice [4, 16] | Sedge, Umbrella plant response rating [3, 15] | Morningglory plant response rating [2, 12] | Morningglory plant response rating [2, 17] | Rice plant response rating [1, 18] | Sedge, Umbrella plant response rating [3, 18] | Rice plant response rating ([1]; 62 g ai/ha, scale 0 to 100) | Sedge, Umbrella plant response rating ([3]; 62 g ai/ha, scale 0 to 100) | other results |
| --- | --- | --- | --- | --- | --- | --- | --- | --- | --- | --- | --- | --- | --- | --- | --- | --- | --- | --- |
| CCn1nc(C(C)(C)C)cc1C(=O)Nc1cccc(C(=O)NCCF)c1 [Compound 45] | 30 | 30 | 65 | 25 | 15 | 55 | 60 | 80 | – | – | – | – | – | – | – | – | – | Plant response rating, Rice [1, 10]: 35; Plant response rating, Morningglory [2, 12]: 25; Morningglory plant response rating ([2]; Preemergence, 2000 g ai/ha, 0 to 100 scale, 0 no effect, 100 complete control): 75; Plant response rating, Sedge, Umbrella [3, 10]: 80 |
| CCn1nc(C(C)(C)C)cc1C(=O)Nc1cccc(C(=O)NC(C)C)c1 [Compound 51] | 0 | 0 | 50 | – | 15 | 45 | 50 | 80 | 15 | 0 | 65 | – | – | – | – | – | – | Rice plant response rating ([4]; Preemergence, 500 g ai/ha, scale 0 to 100): 50; Morningglory plant response rating ([2]; Postemergence, 125 g ai/ha, 0 to 100 scale, 0 no effect, 100 complete control): 10; Plant response rating, Morningglory [2, 12]: 35; Morningglory plant response rating ([2]; preemergence, 125 g ai/ha, visual injury, 0 to 100 scale (0 no effect, 100 complete control)): 10 |
| CCn1nc(C(C)(C)C)cc1C(=O)Nc1cccc(C(C)=O)c1 [Compound 122] | 0 | 10 | 50 | 65 | 25 | 50 | 60 | 80 | 10 | 20 | 70 | 30 | 30 | – | – | – | – | – |
| CCOc1cccc(NC(=O)c2cc(C(C)(C)C)nn2CC)c1 [Compound 136] | 30 | – | 70 | 40 | 20 | 65 | – | 85 | 50 | – | 85 | 20 | 45 | 35 | 80 | – | – | Plant response rating, Rice [4, 19]: 50 |
| CCn1nc(C(C)(C)C)cc1C(=O)Nc1cc(C(=O)NCC2CC2)ccn1 [Compound 155] | 0 | – | 35 | – | – | 0 | – | 75 | 0 | 20 | 65 | – | – | 0 | 30 | – | – | Plant response rating, Rice [4, 19]: 50 |
| CCN(CC)C(=O)c1cncc(NC(=O)c2cc(C(C)(C)C)nn2CC)c1 [Compound 261, 5-[[[3-(1,1-dimethylethyl)-1-ethyl-1H-pyrazol-5-yl]carbonyl]amino]-N,N-diethyl-3-pyridinecarboxamide] | – | – | – | – | – | – | – | – | – | – | – | – | – | – | – | – | – | plant injury at 125 g/ha ([4]; Oryza sativa, pre-emergence, 336 h, 125 g ai/ha, 0 = no effect, 100 = complete control, read-out: Rice plant response rating (0 to 100 scale)): 0%; plant injury at 500 g/ha ([4]; Oryza sativa, pre-emergence, 336 h, 500 g ai/ha, visual rating, 0 = no effect, 100 = complete control, read-out: Plant response rating, Rice): 60% |
| CCn1nc(C(C)(C)C)cc1C(=O)Nc1cc(OC(F)(F)F)ccc1F [Compound 338] | – | – | – | 70 | – | – | – | – | – | – | – | 25 | 40 | – | – | – | – | Plant response rating, Soybean [5, 20]: 35; Plant response rating, Soybean [5, 21]: 60; Plant response rating, Soybean [5, 22]: 30; Plant response rating, Soybean [5, 23]: 10; Morningglory plant response rating [2, 24]: 10; Plant response rating, Goosegrass [6, 20]: 10; Plant response rating, Goosegrass [6, 21]: 10; Plant response rating, Goosegrass [6, 22]: 5; Plant response rating, Goosegrass [6, 23]: 0; Plant response rating, Nutsedge, Yellow [7, 20]: 0; Plant response rating, Nutsedge, Yellow [7, 21]: 0; Plant response rating, Nutsedge, Yellow [7, 22]: 0; Plant response rating, Nutsedge, Yellow [7, 23]: 0 |
| CCc1nn(C(C)C)nc1C(=O)Nc1cccc(C(=O)N2CCCCC2)c1 [Compound 385] | – | – | 80 | – | – | – | – | 85 | 65 | – | 80 | – | – | 50 | 75 | 40 | 75 | Plant response rating, Soybean [5, 25]: 25; Plant response rating (0 = no effect, 100 = complete control), Soybean ([5]; 125 g ai/ha, preemergence): 100; Plant response rating, Soybean [5, 26]: 100; Plant response rating, Soybean [5, 27]: 100; Plant response rating, Goosegrass [6, 25]: 70; Plant response rating (0 = no effect, 100 = complete control), Goosegrass ([6]; 125 g ai/ha, preemergence): 80; Plant response rating, Goosegrass [6, 26]: 95; Plant response rating, Goosegrass [6, 27]: 100; Plant response rating, Nutsedge, Yellow [7, 25]: 100; Plant response rating (0 = no effect, 100 = complete control), Nutsedge, Yellow ([7]; 125 g ai/ha, preemergence): 100; Plant response rating, Nutsedge, Yellow [7, 26]: 100; Plant response rating, Nutsedge, Yellow [7, 27]: 100 |
| CCn1nc(C(C)(C)C)cc1C(=O)Nc1cccc(OS(=O)(=O)CC)c1 [Compound 408] | – | – | 55 | – | – | – | – | 85 | 45 | – | 85 | – | – | 35 | 80 | 25 | 60 | – |
| CCN(C(C)=O)C(=O)c1ccc(F)c(NC(=O)c2cc(C(C)(C)C)nn2CC)c1 [Compound 413] | – | – | 70 | 20 | – | – | – | 75 | 55 | – | 75 | 10 | 15 | 45 | 50 | 35 | 10 | Morningglory plant response rating [2, 24]: 5 |

— patent US20060069132A1, “Azolecarboxamide herbicides” (priority 2004, published 2006)
